Experimental data from the NIST ThermoML archive (doi:10.1021/acs.jced.8b00692).

Conditions: 102 kPa, Liquid; for viscosity: Concentric cylinders viscometry; for speed of sound: Frequency=3 MHz, Single path-length method; for mass density: Vibrating tube method

CCCCCCC1CCCCC1 [hexylcyclohexane]
Conditions	mass density [kg/m3]	speed of sound [m/s]	viscosity [mPa·s]
293.15 K	807.71	1361	2.2
303.15 K	800.56	1322.1	1.81
313.15 K	793.4	1284.2	1.51
323.15 K	786.22	1247.1	1.29
333.15 K	779.02	1211	1.09
343.15 K	771.8	–	0.964
353.15 K	764.6	–	0.847
363.15 K	757.3	–	0.758

CCCCCCCCCC1CCCCC1 [nonylcyclohexane]
Conditions	mass density [kg/m3]	speed of sound [m/s]	viscosity [mPa·s]
293.15 K	816.41	1397.2	4.34
303.15 K	809.57	1359.6	3.39
313.15 K	802.74	1322.9	2.72
323.15 K	795.8	1287.1	2.22
333.15 K	789.05	1252.2	1.85
343.15 K	782.2	–	1.57
353.15 K	775.4	–	1.35
363.15 K	768.5	–	1.2
373.15 K	761.6	–	1.03

CCCCCCCCC1CCCCC1 [octylcyclohexane]
Conditions	mass density [kg/m3]	speed of sound [m/s]	viscosity [mPa·s]
293.15 K	814.14	1387	3.52
303.15 K	807.22	1349.1	2.79
313.15 K	800.29	1312.1	2.27
323.15 K	793.36	1275.9	1.88
333.15 K	786.42	1240.5	1.58
343.15 K	779.5	–	1.36
353.15 K	772.5	–	1.16
363.15 K	765.5	–	1.04
373.15 K	758.5	–	0.899

CCCCCC1CCCCC1 [pentylcyclohexane]
Conditions	mass density [kg/m3]	speed of sound [m/s]	viscosity [mPa·s]
293.15 K	804.11	1345.9	1.7
303.15 K	796.8	1306.4	1.42
313.15 K	789.47	1267.8	1.21
323.15 K	782.12	1230.1	1.04
333.15 K	774.74	1193.4	0.895
343.15 K	767.3	–	0.799
353.15 K	759.9	–	0.709
363.15 K	752.4	–	0.637
